“And” between values parts separate entries of the source, which are not always exact repeats. Equal entries are not always repeated. Where two headings read alike, the source gives them in different places. Marks after values point to notes of the source that are not given here.
Tests used:
PfcProRS = target: T1, PfcProRS (Plasmodium falciparum, UniProt Q8I5R7); assay type: binding; details: for Normalized response, dose-response replicates (SI Fig 14): replicates 1-3
T1 construct: made in house; host or cells: E. coli SoluBL-21

[1] = test system: halofuginone-induced P. falciparum (elevated proline homeostasis); test: P. falciparum ABS growth assay, SYBR Green, 72 h, halofuginone-induced parasites; assay type: cell-based, Plasmodium falciparum; details: for EC50: Plasmodium falciparum, DD2
Description: (§1) Parasites were maintained under standard culture conditions as described previously[56],[57]. […] The P. falciparum Dd2 cell lines used in this study (Dd2-2D4, halofuginone-induced, and HFGR-I) have previously undergone whole genome sequencing in our labs. They were also routinely assayed and EC50 values determined using the ABS growth assay (see below) with a panel of standard antimalarial compounds, including halofuginone which has differential activity for the three Dd2 lines used in these experiments. Data were cross-referenced for consistency with literature reported values and data previously acquired in the lab.
(§2) This assay was performed as previously described. In short, P. falciparum erythrocytic-stage parasites at 1% parasitemia and 1% hematocrit in RPMI + 0.5% Albumax were seeded at 40 μL/well in 384-well plates with test compounds in triplicate, dose-response format with 10 μM dihydroartemisinin as a kill-control and blank (no compound) wells as a growth-control. […] After 72 h, growth was quantified by measuring fluorescence (Molecular Devices SpectraMax iD5) following SYBR Green 1 staining. Data were analyzed in Excel and plotted in PRISM (V. 8.4.3–9.1.0, GraphPad).

[2] = test system: HFGR-I P. falciparum (elevated proline homeostasis and PfcProRS^L482H); test: P. falciparum ABS growth assay, SYBR Green, 72 h, HFGR-I parasites; assay type: cell-based, Plasmodium falciparum; details: for EC50: Plasmodium falciparum, DD2
Description: as §1, §2

P. falciparum Dd2-2D4 = test: P. falciparum asexual blood stage (ABS) growth assay, SYBR Green, 72 h, wild-type parasites; assay type: cell-based, Plasmodium falciparum; details: for EC50: Plasmodium falciparum
HsProRS = HsProRS (Homo sapiens, UniProt P07814); test: TR-FRET ligand displacement assay with tracer MAT379 (CoraFluor-1-Halo and anti-His6 antibody formats); assay type: binding; parameters: made in house; host or cells: E. coli SoluBL-21; details: for normalized TR-FRET signal (dose-response replicates): SI Fig 15, listed as Glyburide (28)
[3] = HsProRS (KD [nM]) + proline, 100 μM proline, 250 nM MAT379
[4] = HsProRS (KD [nM]) −, absence of substrates, 250 nM MAT379
[5] = 10 μM, compound had <50% inhibition

Sequence of HsProRS (P07814 996-1512): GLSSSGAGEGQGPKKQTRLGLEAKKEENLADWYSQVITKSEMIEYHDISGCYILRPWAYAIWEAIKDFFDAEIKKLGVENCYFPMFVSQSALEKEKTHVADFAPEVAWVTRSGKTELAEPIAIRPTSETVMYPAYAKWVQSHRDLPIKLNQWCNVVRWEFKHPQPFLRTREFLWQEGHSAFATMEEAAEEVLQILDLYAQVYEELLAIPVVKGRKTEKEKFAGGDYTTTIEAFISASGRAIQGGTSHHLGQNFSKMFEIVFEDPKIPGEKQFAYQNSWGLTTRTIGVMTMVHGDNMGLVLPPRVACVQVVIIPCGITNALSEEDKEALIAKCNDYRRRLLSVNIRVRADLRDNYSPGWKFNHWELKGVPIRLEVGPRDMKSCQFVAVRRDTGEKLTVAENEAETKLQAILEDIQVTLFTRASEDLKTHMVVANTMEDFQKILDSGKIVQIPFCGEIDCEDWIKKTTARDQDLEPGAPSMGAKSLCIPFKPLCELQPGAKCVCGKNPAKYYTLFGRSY
T1 sequence (Q8I5R7 249-746): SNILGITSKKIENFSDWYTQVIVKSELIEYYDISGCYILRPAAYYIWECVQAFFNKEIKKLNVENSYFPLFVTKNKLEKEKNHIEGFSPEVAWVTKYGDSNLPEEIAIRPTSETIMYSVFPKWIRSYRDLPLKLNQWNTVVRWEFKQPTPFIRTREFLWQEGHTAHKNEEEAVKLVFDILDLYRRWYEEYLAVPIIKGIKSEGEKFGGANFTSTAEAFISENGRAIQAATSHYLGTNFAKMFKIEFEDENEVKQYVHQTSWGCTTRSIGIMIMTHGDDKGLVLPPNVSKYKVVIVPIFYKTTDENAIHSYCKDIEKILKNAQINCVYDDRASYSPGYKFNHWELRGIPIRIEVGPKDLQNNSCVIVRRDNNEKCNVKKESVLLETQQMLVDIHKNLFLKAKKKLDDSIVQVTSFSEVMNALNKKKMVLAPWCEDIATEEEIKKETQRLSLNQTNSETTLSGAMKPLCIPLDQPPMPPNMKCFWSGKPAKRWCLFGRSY

COc1ccc(Cl)cc1C(=O)NCCc1ccc(S(=O)(=O)NC(=O)NC2CCCCC2)cc1 [Glyburide, reference compound]
binding mode with respect to substrates (ATP, proline) (PfcProRS): ATP- and proline-competitive | selectivity for PfcProRS over HsProRS (PfcProRS): > 30 fold | Normalized response, dose-response replicates (SI Fig 14) (PfcProRS; Log[inhibitor] (M) -4.000, listed as Glyburide (28)): 9.02E-01 and 9.90E-01 and 8.86E-01 | Normalized response, dose-response replicates (SI Fig 14) (PfcProRS; Log[inhibitor] (M) -4.301, listed as Glyburide (28)): 1.05E+00 and 1.04E+00 and 1.16E+00 | Normalized response, dose-response replicates (SI Fig 14) (PfcProRS; Log[inhibitor] (M) -4.601, listed as Glyburide (28)): 1.10E+00 and 1.11E+00 and 1.09E+00 | Normalized response, dose-response replicates (SI Fig 14) (PfcProRS; Log[inhibitor] (M) -4.904, listed as Glyburide (28)): 1.18E+00 and 1.08E+00 and 1.07E+00 | Normalized response, dose-response replicates (SI Fig 14) (PfcProRS; Log[inhibitor] (M) -5.208, listed as Glyburide (28)): 9.30E-01 and 1.21E+00 and 1.10E+00 | Normalized response, dose-response replicates (SI Fig 14) (PfcProRS; Log[inhibitor] (M) -5.509, listed as Glyburide (28)): 1.06E+00 and 9.98E-01 and 1.05E+00 | Normalized response, dose-response replicates (SI Fig 14) (PfcProRS; Log[inhibitor] (M) -5.796, listed as Glyburide (28)): 9.95E-01 and 9.65E-01 and 1.02E+00 | Normalized response, dose-response replicates (SI Fig 14) (PfcProRS; Log[inhibitor] (M) -6.108, listed as Glyburide (28)): 9.29E-01 and 8.37E-01 and 1.06E+00 | Normalized response, dose-response replicates (SI Fig 14) (PfcProRS; Log[inhibitor] (M) -6.409, listed as Glyburide (28)): 9.49E-01 and 9.10E-01 and 8.70E-01 | Normalized response, dose-response replicates (SI Fig 14) (PfcProRS; Log[inhibitor] (M) -6.710, listed as Glyburide (28)): 9.85E-01 and 9.81E-01 and 9.34E-01 | Normalized response, dose-response replicates (SI Fig 14) (PfcProRS; Log[inhibitor] (M) -7.000, listed as Glyburide (28)): 1.05E+00 (2×) and 1.07E+00 | Normalized response, dose-response replicates (SI Fig 14) (PfcProRS; Log[inhibitor] (M) -7.301, listed as Glyburide (28)): 1.02E+00 and 9.36E-01 and 1.04E+00 | Normalized response, dose-response replicates (SI Fig 14) (PfcProRS; Log[inhibitor] (M) -7.602, listed as Glyburide (28)): 8.75E-01 and 9.05E-01 and 1.01E+00 | Normalized response, dose-response replicates (SI Fig 14) (PfcProRS; Log[inhibitor] (M) -8.000, listed as Glyburide (28)): 1.03E+00 and 1.08E+00 and 9.17E-01 | Normalized response, dose-response replicates (SI Fig 14) (PfcProRS; Log[inhibitor] (M) -8.301, listed as Glyburide (28)): 1.03E+00 and 8.92E-01 and 1.05E+00 | EC50 ([1]; halofuginone-induced ABS parasites, 72 h, read-out: Dd2 (EC50 [nM]) Halofuginone-induced): 73600 nM | EC50 ([2]; HFGR-I ABS parasites, 72 h, read-out: Dd2 (EC50 [nM]) HFGR-I): 69600 nM | EC50 (P. falciparum Dd2-2D4; DD2, SI Fig 16b, values on -log scale, read-out: ABS - Dd2-2D4 (converted)): 75700 nM | EC50 (P. falciparum Dd2-2D4; wild-type Dd2-2D4 ABS parasites, 72 h, read-out: Dd2 (EC50 [nM]) wt): 75600 nM | HsProRS % signal at 100 μM, + 100 μM proline (HsProRS; + 100 μM proline, 100 μM): 92.6% | Kd (HsProRS; HsProRS (KD [nM]) + ATP, 500 μM ATP, 250 nM MAT379): 30900 nM | Kd (HsProRS; [3]): > 50000 nM | Kd (HsProRS; [4]): 73900 nM | Kd (HsProRS; HsProRS KD + 100 μM proline, bound, + 100 μM proline, bound given in μM): > 50900 nM | normalized TR-FRET signal (dose-response replicates) (HsProRS; Log[inhibitor] (M) -3.99976): 4.60E-01 and 4.45E-01 and 5.24E-01 | normalized TR-FRET signal (dose-response replicates) (HsProRS; Log[inhibitor] (M) -4.3009): 6.36E-01 and 5.89E-01 and 6.44E-01 | normalized TR-FRET signal (dose-response replicates) (HsProRS; Log[inhibitor] (M) -4.60199): 8.28E-01 and 7.19E-01 and 8.15E-01 | normalized TR-FRET signal (dose-response replicates) (HsProRS; Log[inhibitor] (M) -4.90248): 9.22E-01 and 9.13E-01 and 9.32E-01 | normalized TR-FRET signal (dose-response replicates) (HsProRS; Log[inhibitor] (M) -5.20323): 1.00E+00 and 9.33E-01 (2×) | normalized TR-FRET signal (dose-response replicates) (HsProRS; Log[inhibitor] (M) -5.51347): 9.75E-01 (2×) and 1.00E+00 | normalized TR-FRET signal (dose-response replicates) (HsProRS; Log[inhibitor] (M) -5.79595): 7.95E-01 and 8.60E-01 and 9.98E-01 | normalized TR-FRET signal (dose-response replicates) (HsProRS; Log[inhibitor] (M) -6.10794): 8.65E-01 and 8.44E-01 and 8.55E-01 | normalized TR-FRET signal (dose-response replicates) (HsProRS; Log[inhibitor] (M) -6.40526): 9.62E-01 and 9.85E-01 and 1.00E+00 | normalized TR-FRET signal (dose-response replicates) (HsProRS; Log[inhibitor] (M) -6.7137): 9.69E-01 and 9.06E-01 and 9.96E-01 | normalized TR-FRET signal (dose-response replicates) (HsProRS; Log[inhibitor] (M) -7): 8.09E-01 and 8.06E-01 and 9.15E-01 | normalized TR-FRET signal (dose-response replicates) (HsProRS; Log[inhibitor] (M) -7.331): 8.96E-01 and 8.92E-01 and 9.69E-01 | normalized TR-FRET signal (dose-response replicates) (HsProRS; Log[inhibitor] (M) -7.57403): 9.06E-01 and 7.74E-01 and 8.73E-01 | normalized TR-FRET signal (dose-response replicates) (HsProRS; Log[inhibitor] (M) -7.87506): 6.90E-01 and 8.76E-01 and 8.40E-01 | normalized TR-FRET signal (dose-response replicates) (HsProRS; Log[inhibitor] (M) -8.17609): 9.01E-01 and 9.35E-01 and 9.12E-01

O=C(NC1Cc2ccccc2C1)c1nccnc1NC(=O)N1CCC(NC(=O)[C@@H]2CCCN2)CC1 [MAT334]
Normalized response, dose-response replicates (SI Fig 14) (PfcProRS; Log[inhibitor] (M) -5.000, listed as MAT334 (29)): 2.08E-01 and 3.63E-01 and 3.19E-01 | Normalized response, dose-response replicates (SI Fig 14) (PfcProRS; Log[inhibitor] (M) -5.301, listed as MAT334 (29)): 5.18E-01 and 3.74E-01 and 4.21E-01 | Normalized response, dose-response replicates (SI Fig 14) (PfcProRS; Log[inhibitor] (M) -5.601, listed as MAT334 (29)): 6.67E-01 and 7.40E-01 and 6.08E-01 | Normalized response, dose-response replicates (SI Fig 14) (PfcProRS; Log[inhibitor] (M) -5.904, listed as MAT334 (29)): 7.68E-01 and 7.75E-01 and 6.45E-01 | Normalized response, dose-response replicates (SI Fig 14) (PfcProRS; Log[inhibitor] (M) -6.208, listed as MAT334 (29)): 8.81E-01 and 8.94E-01 and 8.19E-01 | Normalized response, dose-response replicates (SI Fig 14) (PfcProRS; Log[inhibitor] (M) -6.509, listed as MAT334 (29)): 8.78E-01 and 9.77E-01 and 9.06E-01 | Normalized response, dose-response replicates (SI Fig 14) (PfcProRS; Log[inhibitor] (M) -6.796, listed as MAT334 (29)): 9.44E-01 and 9.68E-01 and 8.61E-01 | Normalized response, dose-response replicates (SI Fig 14) (PfcProRS; Log[inhibitor] (M) -7.108, listed as MAT334 (29)): 1.02E+00 and 1.01E+00 and 1.00E+00 | Normalized response, dose-response replicates (SI Fig 14) (PfcProRS; Log[inhibitor] (M) -7.409, listed as MAT334 (29)): 9.75E-01 and 1.05E+00 and 9.17E-01 | Normalized response, dose-response replicates (SI Fig 14) (PfcProRS; Log[inhibitor] (M) -7.710, listed as MAT334 (29)): 9.99E-01 and 1.04E+00 and 9.29E-01 | Normalized response, dose-response replicates (SI Fig 14) (PfcProRS; Log[inhibitor] (M) -8.000, listed as MAT334 (29)): 9.48E-01 and 9.82E-01 and 1.03E+00 | Normalized response, dose-response replicates (SI Fig 14) (PfcProRS; Log[inhibitor] (M) -8.301, listed as MAT334 (29)): 1.01E+00 and 1.09E+00 and 9.01E-01 | Normalized response, dose-response replicates (SI Fig 14) (PfcProRS; Log[inhibitor] (M) -8.602, listed as MAT334 (29)): 8.97E-01 (2×) and 1.09E+00 | Normalized response, dose-response replicates (SI Fig 14) (PfcProRS; Log[inhibitor] (M) -9.000, listed as MAT334 (29)): 9.02E-01 and 9.67E-01 and 1.03E+00 | Normalized response, dose-response replicates (SI Fig 14) (PfcProRS; Log[inhibitor] (M) -9.301, listed as MAT334 (29)): 8.06E-01 and 9.62E-01 and 9.06E-01 | PfcProRS -- best Kd (PfcProRS; SI Fig 16a, values on -log scale): 6.180 | percent growth at 10 μM, Dd2 Halofuginone-induced [1, 5]: 59%^b | EC50 ([1]; halofuginone-induced, bound given in μM, read-out: Dd2 EC50 halofuginone-induced, bound): > 10000 nM | % signal at 10 μM, halofuginone-induced ([1]; halofuginone-induced, 10 μM): 58.7% | fold decreased activity in halofuginone-induced and HFGR-I parasites ([1]; vs wild-type Dd2-2D4): 20-to-40 fold | percent growth at 10 μM, Dd2 HFGR-I [2, 5]: 66%^b | % signal at 10 μM, HFGR1 ([2]; HFGR1, 10 μM): 66.0% | EC50 ([2]; HFGR1, bound given in μM, read-out: Dd2 EC50 HFGR1, bound): > 10000 nM | percent growth at 10 μM, Dd2 wt (P. falciparum Dd2-2D4; [5]): 76%^b | EC50 (P. falciparum Dd2-2D4; wildtype (Dd2-2D4), bound given in μM, read-out: Dd2 EC50 wildtype (Dd2-2D4), bound): > 10000 nM | % signal at 10 μM, wildtype (Dd2-2D4) (P. falciparum Dd2-2D4; wildtype (Dd2-2D4), 10 μM): 75.7% | Kd (HsProRS; [3]): 2130 nM | Kd (HsProRS; [4]): 2110 nM

— paper PMC9403976, “Elucidating the path to Plasmodium prolyl-tRNA synthetase inhibitors that overcome halofuginone resistance” (Nature Communications, 2022)
